Data set [1] has as its target T1, rat prostanoid IP receptor (Rattus norvegicus, UniProt P43253).
T1 construct: expressed in transfected cells; host or cells: Chinese Hamster Ovary cells (kept under geneticin)
The data set is described as follows: IP receptor activity assay: cyclic AMP accumulation (cAMP Flashplate) in CHO cells. The data set is classed as cell-based. The conditions noted are these: CHO cells expressing the rat prostanoid IP receptor. The protocol:
The IP receptor agonist potency of compounds of this invention in vitro was determined by measuring the agonist-mediated cyclic AMP accumulation in an assay utilizing Chinese Hamster Ovary cells expressing the rat prostanoid IP receptor. Cyclic AMP levels were determined using a commercially available Adenylate Cyclase cAMP Flashplate Assay.
Chinese Hamster Ovary cells expressing the rat prostanoid IP receptor were maintained in Ham's Mixture with 10% fetal bovine serum, […] geneticin in 5% carbon dioxide ([…]). Cells were harvested at approximately 90% confluency using Dulbecco's Phosphate-Buffered saline containing 2 mM EDTA, and washed once at 1000×g and resuspended in Wash Buffer. A sample was aliquoted for protein determination. The cell suspension was centrifuged at 1000×g and adjusted to 110–140 E+3 cells/50 μl in the “Stimulation and Detection Buffer” from the assay kit.
The test compounds or vehicle were incubated with 50 μl cells (110–140 E+3 cells) for 5 minutes at room temperature. After the incubation, 100 μl lysis/tracer solution was added to the wells and the radioactivity counted on a Packard Topcount microplate scintillation counter after overnight incubation. The amount of radioactive cAMP bound to the antibody is inversely proportional to the concentration of added non-radioactive cAMP. […]

The target of data set [2] is T2, hERG potassium channel (Homo sapiens, UniProt Q12809).
T2 construct: expressed in transfected cells; host or cells: CHO-K1 cells
The data set is described as follows: hERG Potassium Channel Pharmacology Screening (whole-cell patch-clamp, CHO-K1 cells). The conditions noted are these: CHO-K1 cells expressing recombinant human hERG channel, read-out: hERG outward current inhibition percentage. The data set is classed as cell-based. On the procedure: The effects of the subject compounds on recombinant hERG potassium channels expressed in CHO-K1 cells was determined according to the procedure reported by Hamill et al., 1981, Pflügers Arch., 391, 85–100
The following solutions were used to isolate potassium currents in cultured cell lines: extracellular (in mM), NaCl (150), KCl (4), HEPES (10), CaCl2 (1.2), MgCl2 (1), adjusted to pH 7.4 with NaOH; intracellular (in mM), KCl (140), HEPES (10), EGTA (5), MgCl2 (6), ATP-Na2 (5), adjusted to pH 7.2 with KOH.
Whole-cell patch-clamp methods were used to record potassium currents from CHO.K1 cells expressing the human hERG channel. Each cell was held at a negative holding potential of −80 mV. […] Peak tail current amplitudes at the different test potentials were measured to obtain the current-voltage relationship.
A second protocol was used to investigate the effects of compounds on hERG currents. […] Drugs were applied once a stable baseline has been recorded for 5 min. […]
Voltage-dependent potassium currents were recorded from single cells at room temperature (20–22° C.) using the whole-cell configuration of the patch-clamp technique. […]
The peak amplitude of outward currents are measured using Clampfit software to find peak amplitude. […]
Statistics were calculated using Microcal Origin and Prism software, and results were reported as mean+/−standard error of the mean. […]

Results on one molecule are retold here after patent US7279498B2, “Substituted aryl amides as IP antagonists” (Roche Palo Alto LLC, priority 2003, dated 2007).

T2 sequence (Q12809 whole entry): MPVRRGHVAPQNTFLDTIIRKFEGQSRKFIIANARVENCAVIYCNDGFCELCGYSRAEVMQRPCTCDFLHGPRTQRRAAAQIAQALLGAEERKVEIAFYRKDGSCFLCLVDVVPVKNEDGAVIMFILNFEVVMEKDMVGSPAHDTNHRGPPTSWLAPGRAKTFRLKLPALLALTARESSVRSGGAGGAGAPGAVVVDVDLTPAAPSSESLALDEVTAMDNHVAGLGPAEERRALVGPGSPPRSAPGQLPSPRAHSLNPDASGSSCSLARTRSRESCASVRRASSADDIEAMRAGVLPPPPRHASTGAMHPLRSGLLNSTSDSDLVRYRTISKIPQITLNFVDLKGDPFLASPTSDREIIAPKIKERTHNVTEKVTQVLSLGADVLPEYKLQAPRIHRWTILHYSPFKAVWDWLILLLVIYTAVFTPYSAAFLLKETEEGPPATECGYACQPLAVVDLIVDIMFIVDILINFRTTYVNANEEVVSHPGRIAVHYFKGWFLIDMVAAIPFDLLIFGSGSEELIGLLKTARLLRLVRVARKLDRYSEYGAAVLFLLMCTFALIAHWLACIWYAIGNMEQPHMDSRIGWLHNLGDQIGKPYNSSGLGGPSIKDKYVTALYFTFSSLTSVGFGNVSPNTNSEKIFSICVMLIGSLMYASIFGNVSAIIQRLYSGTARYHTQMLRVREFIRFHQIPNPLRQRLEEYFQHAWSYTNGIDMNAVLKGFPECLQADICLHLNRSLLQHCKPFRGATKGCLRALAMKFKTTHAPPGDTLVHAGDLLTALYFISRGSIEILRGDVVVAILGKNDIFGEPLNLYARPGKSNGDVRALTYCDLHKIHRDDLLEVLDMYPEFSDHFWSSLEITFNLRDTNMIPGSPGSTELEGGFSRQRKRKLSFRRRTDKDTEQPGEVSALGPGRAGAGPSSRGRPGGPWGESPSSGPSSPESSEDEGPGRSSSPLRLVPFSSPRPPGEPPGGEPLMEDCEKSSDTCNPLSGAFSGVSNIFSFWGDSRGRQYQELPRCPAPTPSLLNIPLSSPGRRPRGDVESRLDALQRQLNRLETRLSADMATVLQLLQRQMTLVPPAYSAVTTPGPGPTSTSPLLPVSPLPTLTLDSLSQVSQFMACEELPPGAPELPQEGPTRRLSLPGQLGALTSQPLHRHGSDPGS
T1 sequence (P43253 whole entry): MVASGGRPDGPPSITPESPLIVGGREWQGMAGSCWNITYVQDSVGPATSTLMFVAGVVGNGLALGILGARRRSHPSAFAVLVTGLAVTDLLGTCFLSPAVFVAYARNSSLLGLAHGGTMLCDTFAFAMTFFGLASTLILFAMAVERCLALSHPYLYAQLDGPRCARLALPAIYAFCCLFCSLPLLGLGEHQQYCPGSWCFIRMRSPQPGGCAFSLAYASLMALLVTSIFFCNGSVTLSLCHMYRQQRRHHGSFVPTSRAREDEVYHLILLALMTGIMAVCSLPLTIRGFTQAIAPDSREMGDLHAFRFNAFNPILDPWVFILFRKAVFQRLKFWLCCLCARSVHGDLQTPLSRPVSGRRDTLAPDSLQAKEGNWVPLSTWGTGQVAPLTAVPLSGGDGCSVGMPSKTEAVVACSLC

The Ki is a measure of affinity in units of concentration, obtained from inhibition or displacement. A high value points to lower affinity. Broadly, the inhibition is the drop in the measured response relative to a control, in per cent. As to `COc1ccc(C(=O)NCc2ccc(NC3=NCCN3)cc2)cc1` [compound 96, N-[4-(4,5-Dihydro-1H-imidazol-2-yl-amino)-benzyl]-4-methoxy-benzamide], the inhibition constant Ki in data set [1] was ~7.59 nM. The inhibition at 1 µM in data set [2] (pH 7.4, at 1 uM) turned out to be 4.3 ± 4.4%. In data set [2] (pH 7.4, at 10 uM), the inhibition at 10 µM worked out at 10.8 ± 7.2%.
